This note sets out measurements from patent US9266820B2, “Nitric oxide donor compounds” (NICOX S.A., priority 2007, dated 2016).

Counter-ions that a name gives are not always drawn.

In one assay the test system is isolated rabbit thoracic aorta preparations. As to the kind of experiment: vasorelaxant activity in isolated rabbit thoracic aorta preparations precontracted with noradrenaline. The following applies: Oryctolagus cuniculus, read-out: IC50 (μM) ± sem. The class given is cell-based. Here is the method: The ability of the compounds of the present invention to release nitric oxide was assessed testing their vasorelaxant activity in isolated rabbit thoracic aorta preparations (Wanstall J. C. et al., Br. J. Pharmacol., 134:463-472, 2001).
Male New Zealand rabbits were anaesthetized with thiopental-Na (50 mg/kg, iv), sacrificed by exsanguinations and then the thorax was opened and the aorta dissected. Single ring preparations (4 mm in length) of thoracic aorta were set up in physiological salt solution (PSS) at 37° C. in small organ chambers (5 ml). The composition of PSS was (mM): NaCl 130, NaHCO3 14.9, KH2PO4 1.2, MgSO4 1.2, HEPES 10, CaCl2, ascorbic acid […] and glucose 1.1 (95%)2/5% CO2; pH 7.4). Each ring was mounted under 2 g passive tension in 5 ml organ bath. Isometric tension was recorded with a Grass transducer (Grass FT03) attached to a BIOPAC MP150 System. Preparations were allowed to equilibrate for 1 h, then contracted submaximally with noradrenaline (NA, 1 μM) and, when the contraction was stable, acetylcholine (ACh, 10 μM) was added. A relaxant response to ACh indicated the presence of a functional endothelium. When a stable precontraction was reached, a cumulative concentration-response curve to either of the vasorelaxant agents was obtained in the presence of a functional endothelium. Time intervals between different concentrations were based on the time needed to reach a full response.
Moreover, the nitric oxide-dependent vascular relaxation elicited by the tested compounds was examined preincubating the aortic rings with the soluble guanylyl cyclase inhibitor ODQ (1H-(1,2,4)-oxadiazol(4,3-a)quinoxalin-1-one) at 10 μM for 20 min. Responses to vasorelaxing agents were measured from the plateau of NA contraction. The IC50 (concentration giving 50% reversal of NA contraction) was interpolated from the plots of relaxant-response vs log molar concentration of tested compound.
During the experimental period, the plateau obtained with NA was stable without significant spontaneous loss of contraction in the aortic rings.
Regarding `CC(C)(C)OC(=O)N[C@@H](Cc1ccccc1)C(=O)OCCCC[C@H](CO[N+](=O)[O-])O[N+](=O)[O-]` [Compound 123], the IC50 – broadly, the concentration needed to halve the response being measured – turned out to be 0.64 ± 0.14 µM.
Consider `NC(COC(=O)OCCCCO[N+](=O)[O-])C(=O)O` (stereo not drawn) [Compound 407, 2-amino-3-((4-(nitrooxy)butoxy)carbonyloxy)propanoic acid hydrochloride], for which the half-inhibitory concentration (IC50) is 16 ± 6.4 µM.

The assay is the same for the next values; noted with them: Oryctolagus cuniculus; concentration giving 50% reversal of NA (1 μM) contraction; aortic rings with functional endothelium; read-out: IC50 (μM) ± sem.
With `CC(C)(C)OC(=O)N1CCCC1C(=O)OCc1ccc(CO[N+](=O)[O-])cc1` (stereo not drawn) [Compound 7, 1-tert-Butyl 2-(4-(nitrooxymethyl)benzyl)pyrrolidine-1,2-dicarboxylate], the IC50 worked out at 2.4 ± 0.5 µM.
With `CC(C)(C)OC(=O)NCC(=O)NCCCCO[N+](=O)[O-]` [Compound 12, tert-butyl 2-(4-(nitrooxy)butylamino)-2-oxoethylcarbamate], the IC50 came to 10.2 ± 4.2 µM.
Take `CC(C)(C)OC(=O)NC(CCc1ccccc1)C(=O)OCc1ccc(CO[N+](=O)[O-])cc1` (stereo not drawn) [Compound 13, 4-[(Nitrooxy)methyl]benzyl 2-(tert-butoxycarbonylamino)-4-phenylbutanoate]: the IC50 is 10.2 ± 0.5 µM.
Consider `CC(C)(C)OC(=O)N[C@@H](Cc1ccccc1)C(=O)OCCCCO[N+](=O)[O-]` [Compound 15, (S)-4-(nitrooxy)butyl 2-(tert-butoxycarbonylamino)-3-phenylpropanoate], for which the IC50 worked out at 12.6 ± 6.4 µM.
For the molecule `CC(C)(C)OC(=O)NC(CCc1ccccc1)C(=O)Oc1cccc(CO[N+](=O)[O-])c1` (stereo not drawn) [Compound 86, 3-[(Nitrooxy)methyl]phenyl 2-(tert-butoxycarbonylamino)-4-phenylbutanoate], the IC50 came out at 5.2 ± 0.9 µM.
Regarding `CC(C)(C)OC(=O)NCC(=O)OCc1ccc(CO[N+](=O)[O-])cc1` [Compound 87, 4-[(nitrooxy)methyl]benzyl 2-(tert-butoxycarbonylamino)acetate], the IC50 stood at 2.1 ± 0.4 µM.
For `CC(C)(C)OC(=O)NCCOC(=O)CCCO[N+](=O)[O-]` [Compound 508, 2-(tert-butoxycarbonylamino)ethyl 4-(nitrooxy)butanoate], the 50% inhibitory concentration (IC50) turned out to be 4.4 ± 0.7 µM.
In the case of `CC(C)(C)OC(=O)N[C@H](COC(=O)CCCO[N+](=O)[O-])Cc1ccccc1` [Compound 511, (S)-2-(tert-butoxycarbonylamino)-3-phenylpropyl 4-(nitrooxy)butanoate], the IC50 amounted to 9.5 ± 3.6 µM.
With `CC(C)(C)OC(=O)N1CCCC1C(=O)OCCCCO[N+](=O)[O-]` (stereo not drawn) [Example 14, 1-tert-butyl 2-(4-(nitrooxy)butyl)pyrrolidine-1,2-dicarboxylate], the IC50 stood at 1.9 ± 0.4 µM.
On the same count and under the same terms, with `CC(C)(C)OC(=O)N1CCCC1C(=O)OCCCO[N+](=O)[O-]` (stereo not drawn) [Example 15, 1-tert-butyl 2-(3-(nitrooxy)propyl)pyrrolidine-1,2-dicarboxylate] the figure was 1.2 ± 0.33 µM; with `CC(C)(C)OC(=O)NC(CCc1ccccc1)C(=O)OCCOCCO[N+](=O)[O-]` (stereo not drawn) [Example 21, 2-(2-(Nitrooxy)ethoxy)ethyl 2-(tert-butoxycarbonylamino)-4-phenylbutanoate], 8 ± 1.8 µM.

Still in this assay, the particulars now being: concentration giving 50% reversal of NA (1 μM) contraction; aortic rings with functional endothelium; read-out: IC50 (μM) ± sem.
Regarding `CC(C)(C)OC(=O)N1CCCC1C(=O)Oc1cccc(CO[N+](=O)[O-])c1` (stereo not drawn) [Compound 8], the half-inhibitory concentration (IC50) was determined as 2.6 ± 0.6 µM.
For `CC(C)(C)OC(=O)N1CCCC1C(=O)OCCOCCO[N+](=O)[O-]` (stereo not drawn) [Compound 9], the IC50 is 4.5 ± 1.4 µM.
